Values quoted from earlier work as cited in patent US8840883B2, “Metallo-protein and tocotrienol (MP-T3) compositions with non-protein-type metal chelator and uses thereof” (Naidu LP, priority 2007, dated 2014).

Details: as low as 2% oxygen

Compound	degradation [%]
CC(C)=CCC/C(C)=C/CC/C(C)=C/CC[C@]1(C)CCc2cc(O)c(C)c(C)c2O1 [gamma-T3]	29
Cc1c(O)cc2c(c1C)O[C@](C)(CCC[C@H](C)CCC[C@H](C)CCCC(C)C)CC2 [gamma-tocopherol]	20
